According to patent US5718900A, “Vaccines and methods for preventing and treating Fescue toxicosis in herbivores” (priority 1994, dated 1998):
Structures can show the parent of a compound that is named as a salt.

Tests used:
[1] = system: monoclonal antibody 15F3.E5; test: Cross-reactivity of the monoclonal antibody, competitive ELISA on PLL-lysergic acid coated plates; assay type: binding, mouse; settings: for IC50: antibody diluted 1:50, pre-incubated 1 h with lysergic acid derivative, absorbance at 405 nm, read-out: Molar Concentration at 50% Maximum Absorbance; for cross reaction of 15F3.E5 with lysergic acid derivative: at the concentrations tested
Protocol: Mouse monoclonal antibody was diluted 1:50 in ELISA diluent. Working dilutions of various lysergic acid derivatives ranging between 1.78×10^-6 to 3.93×10^-15 M were made in 1:10 increments in PBS and 50 uL aliquots were pre-incubated for 1 h with 50 uL of diluted antibody at room temperature. To determine presence of unbound antibody, pre-incubated antibody/lysergic derivatives were transferred to ELISA plates pre-coated with PLL-lysergic acid for 2 h at room temperature. After washing, ELISA plates were treated with 1:500 dilution of rabbit derived antimouse antibody conjugated to alkaline phosphatase:ELISA diluent for 2 h at room temperature and washed. Fifty microliters of alkaline phosphate substrate was added to each well and the characteristic yellow color indicating binding of mouse antibody to the PLL-lysergic acid measured at 405 nm on a Titertek Multiskan Model MCC/340 plate reader.

Angus steers = settings: literature report; cited from earlier work
fescue toxicosis = settings: literature report; cited from earlier work

| SMILES | IC50 [1] [nM] | cross reaction of 15F3.E5 with lysergic acid derivative [1] | also measured |
| --- | --- | --- | --- |
| CC(C)[C@@]1(NC(=O)[C@@H]2C[C@@H]3c4cccc5[nH]cc(c45)C[C@H]3N(C)C2)O[C@@]2(O)[C@@H]3CCCN3C(=O)[C@H](Cc3ccccc3)N2C1=O [dihydro-ergocristine] | > 1780 |  |  |
| CC(C)C1C(=O)N2CCCC2C2(O)OC(NC(=O)C3CC4c5cccc6[nH]cc(c56)CC4N(C)C3)(C(C)C)C(=O)N12 (stereo not shown) [dihydro-ergocornine] | > 1680 |  |  |
| CN1C[C@H](C(=O)N[C@]2(C)O[C@@]3(O)[C@@H]4CCCN4C(=O)[C@H](Cc4ccccc4)N3C2=O)C=C2c3cccc4[nH]cc(c34)C[C@H]21 [Ergotamine tartrate] | 7.69 | cross reaction |  |
| CC(C)[C@H]1C(=O)N2CCC[C@H]2[C@]2(O)O[C@@](C)(NC(=O)[C@@H]3C=C4c5cccc6[nH]cc(c56)C[C@H]4N(C)C3)C(=O)N12 [Ergovaline] |  | cross reaction |  |
| CCN(CC)CCNC(=O)c1cc(Cl)c(N)cc1OC [metoclopramide] |  |  | effect on serum prolactin, weight gains and hair coats (Angus steers): increased serum prolactin and weight gains |
| CN1C[C@H](CO)C=C2c3cccc4[nH]cc(c34)C[C@H]21 [Lysergol] |  | cross reaction |  |
| CN1C[C@H](C(=O)O)C=C2c3cccc4[nH]cc(c34)C[C@H]21 [Lysergic Acid] | 0.0373 | cross reaction |  |
| CC(C)C[C@H]1C(=O)N2CCC[C@H]2[C@]2(O)O[C@](NC(=O)[C@@H]3C=C4c5cccc6[nH]c(Br)c(c56)C[C@H]4N(C)C3)(C(C)C)C(=O)N12 [2-bromo-a-ergocryptine] | > 1330 |  |  |
| Cc1ncc(C[n+]2csc(CCO)c2C)c(N)n1 [thiamine] |  |  | effect on symptoms of fescue toxicosis (fescue toxicosis): partially alleviated symptoms |
| C[C@@H](CO)NC(=O)[C@@H]1C=C2c3cccc4[nH]cc(c34)C[C@H]2N(C)C1 [Ergonovine] | 1.69 | cross reaction |  |
